Source: publication PMC7824111, “Targeting Cytokinin Homeostasis in Rapid Cycling Brassica rapa with Plant Growth Regulators INCYDE and TD-K” (Plants, 2020)

Legend:
CRE1/AHK4 = CRE1/AHK4 (Arabidopsis thaliana, UniProt Q9C5U0); test: E. coli receptor activation assay; assay type: cell-based
AHK3 = target: T1, AHK3 (Arabidopsis thaliana, UniProt Q9C5U1); test: E. coli receptor activation assay; assay type: cell-based
T1 sequence (Q9C5U1 1-1036): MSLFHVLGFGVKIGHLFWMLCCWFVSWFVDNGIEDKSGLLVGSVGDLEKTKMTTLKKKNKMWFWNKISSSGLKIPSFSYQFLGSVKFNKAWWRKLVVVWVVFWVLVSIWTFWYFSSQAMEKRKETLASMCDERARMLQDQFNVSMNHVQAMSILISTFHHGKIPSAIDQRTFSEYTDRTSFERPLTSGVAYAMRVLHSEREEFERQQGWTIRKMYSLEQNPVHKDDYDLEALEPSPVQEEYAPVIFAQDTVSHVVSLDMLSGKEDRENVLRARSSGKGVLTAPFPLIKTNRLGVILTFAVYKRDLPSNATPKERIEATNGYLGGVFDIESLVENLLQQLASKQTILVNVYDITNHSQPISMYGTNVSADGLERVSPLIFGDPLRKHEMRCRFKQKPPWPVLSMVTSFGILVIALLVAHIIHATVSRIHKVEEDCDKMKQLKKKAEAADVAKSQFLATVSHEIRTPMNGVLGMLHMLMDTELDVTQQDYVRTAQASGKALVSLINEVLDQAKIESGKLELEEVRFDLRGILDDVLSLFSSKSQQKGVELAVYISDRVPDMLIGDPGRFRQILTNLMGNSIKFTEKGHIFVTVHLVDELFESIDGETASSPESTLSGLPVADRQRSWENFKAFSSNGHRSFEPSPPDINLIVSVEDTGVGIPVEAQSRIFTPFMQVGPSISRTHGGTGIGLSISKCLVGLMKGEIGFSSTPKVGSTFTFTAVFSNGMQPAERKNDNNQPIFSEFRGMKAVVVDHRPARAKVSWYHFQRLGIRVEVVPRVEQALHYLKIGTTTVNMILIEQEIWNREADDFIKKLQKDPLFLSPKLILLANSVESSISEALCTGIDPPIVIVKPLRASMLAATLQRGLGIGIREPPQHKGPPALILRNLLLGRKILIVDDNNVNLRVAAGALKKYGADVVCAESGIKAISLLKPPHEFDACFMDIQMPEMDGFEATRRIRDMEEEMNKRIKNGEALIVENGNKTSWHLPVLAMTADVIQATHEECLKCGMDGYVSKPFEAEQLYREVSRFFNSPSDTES

Sequence of CRE1/AHK4 (Q9C5U0 whole entry): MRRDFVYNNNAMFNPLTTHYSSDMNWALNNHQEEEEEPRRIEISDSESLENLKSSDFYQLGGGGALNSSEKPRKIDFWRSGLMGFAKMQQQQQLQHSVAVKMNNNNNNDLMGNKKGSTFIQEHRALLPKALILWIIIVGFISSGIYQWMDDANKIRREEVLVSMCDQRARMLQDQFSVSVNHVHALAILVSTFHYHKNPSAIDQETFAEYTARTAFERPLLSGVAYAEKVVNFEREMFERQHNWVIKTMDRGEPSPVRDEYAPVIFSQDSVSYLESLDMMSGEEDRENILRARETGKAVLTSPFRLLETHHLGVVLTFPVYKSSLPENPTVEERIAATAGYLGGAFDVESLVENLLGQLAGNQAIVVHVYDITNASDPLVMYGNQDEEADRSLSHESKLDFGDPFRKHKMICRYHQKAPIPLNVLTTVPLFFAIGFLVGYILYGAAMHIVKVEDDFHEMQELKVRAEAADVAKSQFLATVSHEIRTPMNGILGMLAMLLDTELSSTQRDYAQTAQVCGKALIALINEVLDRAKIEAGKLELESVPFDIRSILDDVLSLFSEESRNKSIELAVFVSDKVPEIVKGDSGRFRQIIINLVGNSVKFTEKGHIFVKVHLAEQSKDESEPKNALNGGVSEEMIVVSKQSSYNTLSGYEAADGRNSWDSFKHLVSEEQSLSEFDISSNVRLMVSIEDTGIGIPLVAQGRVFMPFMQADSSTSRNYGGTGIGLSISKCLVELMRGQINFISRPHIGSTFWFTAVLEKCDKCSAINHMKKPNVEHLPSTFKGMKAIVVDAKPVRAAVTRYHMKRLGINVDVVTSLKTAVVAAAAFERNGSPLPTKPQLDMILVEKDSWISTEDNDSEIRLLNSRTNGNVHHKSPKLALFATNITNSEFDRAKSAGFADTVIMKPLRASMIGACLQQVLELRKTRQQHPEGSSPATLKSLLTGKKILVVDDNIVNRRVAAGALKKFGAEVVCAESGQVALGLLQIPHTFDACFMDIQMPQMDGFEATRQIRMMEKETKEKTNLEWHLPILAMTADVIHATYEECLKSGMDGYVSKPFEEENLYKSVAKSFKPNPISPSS

| Structure (SMILES) | E. coli receptor activation assay (CRE1/AHK4) | E. coli receptor activation assay (AHK3) |
| --- | --- | --- |
| O=C(NCc1ccccc1)Nc1cnns1 [TD-BA] | ~ 50 μM |  |
| O=C(Nc1ccccc1)Nc1cnns1 [TDZ, 1-phenyl-3-(1,2,3-thiadiazol-5-yl) urea] | ~ 1 μM | ~ 10 nM |
| C/C(=C\CNc1ncnc2[nH]cnc12)CO [tZ, trans-zeatin] | ~ 1 μM | ~ 10 nM |
